Data: patent US20260364184A1, “COMPOUND BASED ON OXOISOINDOLINYL-SUBSTITUTED TETRAHYDROPYRIMIDINE-DIONE AND USE THEREOF” (GLUETACS THERAPEUTICS (SHANGHAI) CO., LTD., priority 2023, published 2026)

Legend:
[1] = target: T1, EGFR (Homo sapiens, UniProt P00533); assay: Western blot degradation of EGFR; assay type: cell-based; conditions: H1975 Cell; 24 hours
T1 construct: L858R/T790M in cis, heterozygous with wild type), Western blot
Protocol: Conventional Western blot assay was performed to evaluate the effects of the compounds of the present disclosure on the expression of target proteins in cells.
(1) Cell Seeding and Protein Harvesting: The selected cells were processed according to the cell seeding procedure and protein harvesting procedure in Table II-2.
(2) To the collected supernatant, 5×SDS sample loading buffer was added, followed by denaturation at 95 °C for 5 minutes. The denatured samples were then separated by SDS-PAGE electrophoresis on a polyacrylamide gel. Proteins were transferred to a nitrocellulose membrane (0.45 μm NC membrane), blocked with blocking buffer at room temperature for 1 hour, and subjected to antibody incubation and development procedures according to the antibody manufacturer's instructions (Cell Signaling Technology).
Half-Maximal Degradation Concentration value (the drug concentration required for degrading proteins by 50%, abbreviated as DC50) reads method: comparing the grayscale values of Western blot bands from drug-treated samples with those from blank DMSO-treated controls, and identifying the drug concentration range at which the grayscale value is half that of the DMSO-treated control bands.
DC50 values can be calculated using ImageJ software to measure grayscale values of Western blot bands from drug-treated samples. The concentration-response curve is fitted to estimate the drug concentration corresponding to half the grayscale value.
Target protein remaining (%) refers to the percentage of target protein remaining in cells after treatment with protein degrader compounds.
Calculation method for target protein remaining (%): Use ImageJ software to measure grayscale values of Western blot bands from drug (protein degrader)-treated samples. The grayscale value of drug-treated bands is divided by that of internal control protein bands, and the resulting quotient is normalized to obtain the relative percentage of remaining target protein after protein degrader treatment.
Target protein degradation rate (%)=1−target protein remaining (%).

[2] = test system: Human neuroblastoma cell line (SK-N-AS); assay: Inhibition of SK-N-AS cell proliferation (CellTiter luminescent viability); assay type: cell-based; conditions: Table II2, EZH2 inhibitor-based, 96 hours; for inhibition at 0.01 µM: 10 nM, read-out: Inhibition Rate at 10 nM (%); for inhibition at 0.5 µM: 500 nM, read-out: Inhibition Rate at 500 nM (%)
Protocol: The tumor cells used herein were cultured in a cell culture medium listed in table 3 at 37 °C in an incubator with 5% CO2. Prior to experimentation, all cell lines used were correctly identified by STR profiling, and tested negative for mycoplasma contamination using a mycoplasma detection kit through routine screenings.
The IC50 values of the compounds of the present disclosure (including the compounds in Table 1, Table 2, and Examples 1-468) were determined using the CellTiter-Meiluncell Luminescent Cell Viability Assay Kit from Dalian Meilun Biotech Co., Ltd. The detailed procedure is as follows: Tumor cells were seeded in 96-well cell culture plates at the densities specified in Table 4. On the following day, the test compounds of the present disclosure were subjected to serial dilution. The dilution can be performed according to one of the following two methods: • (1) The first dilution method: The test compounds of the present disclosure (including the compounds in Table 1, Table 2, and Examples 1-468) were subjected to 5-fold serial dilutions starting from a highest concentration of 2000 μM, resulting in a total of 9 concentrations from high to low (2000, 400, 80, 16, 3.2, 0.64, 0.128, 0.0256, 0.00512 μM). Subsequently, 0.5 μL of the test compound dilution was transferred into the 96-well plate containing the cells, with each well containing 100 μL of cell culture medium. […] Into the 96-well plate, the diluted test compounds and corresponding detection reagents were added, resulting in final test compound concentrations of 500 nM and 10 nM, respectively. The experimental procedure is described below using the diluted 2 μM test compound as an example.
0.5 μL of the aforementioned diluted compound of the present disclosure (including the compounds in Table 1, Table 2, and Examples 1-468) was added to the seeded cells in 100 μL of medium, yielding a final test compound concentration of 10 nM. After the cells were treated with the compounds of the present disclosure for a specified period, the cell viability assay reagent was added to the culture medium according to the kit's instructions to determine cell viability. […] All controls were treated using the same procedure as the compounds of the present disclosure. The growth inhibition curves for the compounds of the present disclosure were plotted using Prism GraphPad software, and the IC50 values were calculated therefrom.

T1 sequence (P00533 25-1210): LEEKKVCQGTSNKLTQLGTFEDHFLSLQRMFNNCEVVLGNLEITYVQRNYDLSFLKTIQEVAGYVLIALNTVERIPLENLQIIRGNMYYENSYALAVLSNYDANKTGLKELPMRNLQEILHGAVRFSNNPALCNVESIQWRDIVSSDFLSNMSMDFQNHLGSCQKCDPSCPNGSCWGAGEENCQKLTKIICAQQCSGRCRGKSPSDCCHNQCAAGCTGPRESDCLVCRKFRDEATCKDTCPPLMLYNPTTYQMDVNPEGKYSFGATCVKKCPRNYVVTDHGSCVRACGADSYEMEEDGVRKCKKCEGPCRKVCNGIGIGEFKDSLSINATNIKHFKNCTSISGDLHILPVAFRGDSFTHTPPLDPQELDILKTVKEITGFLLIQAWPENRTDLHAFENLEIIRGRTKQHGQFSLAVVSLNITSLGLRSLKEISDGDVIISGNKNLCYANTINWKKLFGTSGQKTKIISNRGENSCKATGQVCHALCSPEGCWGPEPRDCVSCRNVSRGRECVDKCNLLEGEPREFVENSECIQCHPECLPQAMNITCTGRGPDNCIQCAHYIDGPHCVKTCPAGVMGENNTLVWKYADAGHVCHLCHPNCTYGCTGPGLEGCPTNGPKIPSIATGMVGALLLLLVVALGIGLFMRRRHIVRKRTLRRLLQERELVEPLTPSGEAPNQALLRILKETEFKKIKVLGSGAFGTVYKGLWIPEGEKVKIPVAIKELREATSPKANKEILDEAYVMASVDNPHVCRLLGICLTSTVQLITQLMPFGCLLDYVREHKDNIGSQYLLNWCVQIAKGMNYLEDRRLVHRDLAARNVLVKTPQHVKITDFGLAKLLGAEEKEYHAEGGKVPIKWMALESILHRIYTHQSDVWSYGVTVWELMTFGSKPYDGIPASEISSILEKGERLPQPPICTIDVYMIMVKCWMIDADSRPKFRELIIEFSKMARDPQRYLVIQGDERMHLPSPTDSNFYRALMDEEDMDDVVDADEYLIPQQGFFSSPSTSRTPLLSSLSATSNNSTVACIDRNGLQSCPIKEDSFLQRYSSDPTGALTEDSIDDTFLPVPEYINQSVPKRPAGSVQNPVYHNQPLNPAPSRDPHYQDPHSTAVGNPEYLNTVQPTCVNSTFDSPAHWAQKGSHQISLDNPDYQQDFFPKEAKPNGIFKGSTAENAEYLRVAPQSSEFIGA
T1 sequence (Q96SW2 whole entry partner): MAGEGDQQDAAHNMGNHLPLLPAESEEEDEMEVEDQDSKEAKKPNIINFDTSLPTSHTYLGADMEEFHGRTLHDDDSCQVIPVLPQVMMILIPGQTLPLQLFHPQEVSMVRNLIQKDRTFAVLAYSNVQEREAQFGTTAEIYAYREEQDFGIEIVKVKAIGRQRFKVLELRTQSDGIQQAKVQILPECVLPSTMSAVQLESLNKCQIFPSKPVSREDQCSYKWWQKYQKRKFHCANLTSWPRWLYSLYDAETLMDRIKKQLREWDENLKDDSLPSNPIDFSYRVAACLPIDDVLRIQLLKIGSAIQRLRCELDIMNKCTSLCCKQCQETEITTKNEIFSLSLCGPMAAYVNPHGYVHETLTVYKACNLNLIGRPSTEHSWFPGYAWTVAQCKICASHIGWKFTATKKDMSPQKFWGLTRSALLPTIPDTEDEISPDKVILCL

| Degradation of substrate protein EGFR (substrate protein remaining %) [1] | SMILES | inhibition at 0.01 µM [2] [%] | inhibition at 0.5 µM [2] [%] |
| --- | --- | --- | --- |
| A (0%≤substrate protein remaining %≤80%) | O=C1CCN(N2C(=O)c3ccc(N4CCC(CN5CCN(C6CCN(c7ccc(Nc8ncc9nc(Nc%10ccccc%10)n(C%10CCCC%10)c9n8)cc7)CC6)CC5)CC4)cc3C2=O)C(=O)N1 [GT-05955, 5-(4-((4-(1-(4-((9-cyclopentyl-8-(phenylamino)-9H-purin-2-yl)amino)phenyl)piperidin-4-yl)piperazin-1-yl)methyl)piperidin-1-yl)-2-(2,4-dioxotetrahydropyrimidin-1(2H)-yl)isoindoline-1,3-dione] | – | – |
| A (0%≤substrate protein remaining %≤80%) | COc1cc(N2CCC(N3CCN(CC4CCN(c5cccc6c5C(=O)N(N5CCC(=O)NC5=O)C6=O)CC4)CC3)CC2)c(C)cc1Nc1ncc(Br)c(Nc2ccc3nccnc3c2P(C)(C)=O)n1 [GT-05998, 4-(4-((4-(1-(4-((5-bromo-4-((5-(dimethylphosphoryl)quinoxalin-6-yl)amino)pyrimidin-2-yl)amino)-5-methoxy-2-methylphenyl)piperidin-4-yl)piperazin-1-yl)methyl)piperidin-1-yl)-2-(2,4-dioxotetrahydropyrimidin-1(2H)-yl)isoindoline-1,3-dione] | – | – |
| A (0%≤substrate protein remaining %≤80%) | COC1CCN(c2nccc(Nc3cc4c(cn3)c(N3CCN(CC5CCN(c6cccc7c6C(=O)N(N6CCC(=O)NC6=O)C7=O)CC5)CC3)nn4C(C)C)n2)CC1 [GT-06035, 2-(2,4-dioxotetrahydropyrimidin-1(2H)-yl)-4-(4-((4-(1-isopropyl-6-((2-(4-methoxypiperidin-1-yl)pyrimidin-4-yl)amino)-1H-pyrazolo[4,3-c]pyridin-3-yl)piperazin-1-yl)methyl)piperidin-1-yl)isoindoline-1,3-dione] | – | – |
| A (0%≤substrate protein remaining %≤80%) | COc1cc(N2CCC(N3CCN(Cc4ccc5c(c4)C(=O)N(N4CCC(=O)NC4=O)C5=O)CC3)CC2)c(C)cc1Nc1ncc(Br)c(Nc2ccc3nccnc3c2P(C)(C)=O)n1 [GT-06154, 5-((4-(1-(4-((5-bromo-4-((5-(dimethylphosphoryl)quinoxalin-6-yl)amino)pyrimidin-2-yl)amino)-5-methoxy-2-methylphenyl)piperidin-4-yl)piperazin-1-yl)methyl)-2-(2,4-dioxotetrahydropyrimidin-1(2H)-yl)isoindoline-1,3-dione] | – | – |
| A (0%≤substrate protein remaining %≤80%) | O=C1CCN(N2Cc3cc(CN4CCN(C5CCN(c6ccc(Nc7ncc8nc(Nc9ccccc9)n(C9CCCC9)c8n7)cc6)CC5)CC4)ccc3C2=O)C(=O)N1 [GT-05914, 1-(5-((4-(1-(4-((9-cyclopentyl-8-(phenylamino)-9H-purin-2-yl)amino)phenyl)piperidin-4-yl)piperazin-1-yl)methyl)-1-oxoisoindolin-2-yl)dihydropyrimidine-2,4 (1H,3H)-dione] | – | – |
| – | CCCc1cc(C)[nH]c(=O)c1CNC(=O)c1cc(-c2ccc(N3CCN(C(C)C)CC3)nc2)cc2c1cnn2C(C)C [UNC1999, reference compound] | 0 to 5 | 0 to 5 |
| A (0%≤substrate protein remaining %≤80%) | CN(Cc1ccc2c(c1)C(=O)N(N1CCC(=O)NC1=O)C2=O)C1CCN(c2ccc(Nc3ncc4nc(Nc5ccccc5)n(C5CCCC5)c4n3)cc2)CC1 [GT-07113, 5-(((1-(4-((9-cyclopentyl-8-(phenylamino)-9H-purin-2-yl)amino)phenyl)piperidin-4-yl)(methyl)amino)methyl)-2-(2,4-dioxotetrahydropyrimidin-1(2H)-yl)isoindoline-1,3-dione] | – | – |
| A (0%≤substrate protein remaining %≤80%) | COc1cc(N2CCN(Cc3ccc4c(c3)CN(N3CCC(=O)NC3=O)C4=O)CC2)c(C)cc1Nc1ncc(Br)c(Nc2ccc3nccnc3c2P(C)(C)=O)n1 [GT-05946, 1-(5-((4-(4-((5-bromo-4-((5-(dimethylphosphoryl)quinoxalin-6-yl)amino)pyrimidin-2-yl)amino)-5-methoxy-2-methylphenyl)piperazin-1-yl)methyl)-1-oxoisoindolin-2-yl)dihydropyrimidine-2,4 (1H,3H)-dione] | – | – |
| A (0%≤substrate protein remaining %≤80%) | CC(C)n1nc(N2CCC(N(C)Cc3ccc4c(c3)CN(N3CCC(=O)NC3=O)C4=O)CC2)c2cnc(Nc3ccnc(-c4cnn(S(=O)(=O)C5CC5)c4)n3)cc21 [GT-06019, 1-(5-(((1-(6-((2-(1-(cyclopropylsulfonyl)-1H-pyrazol-4-yl)pyrimidin-4-yl)amino)-1-isopropyl-1H-pyrazolo[4,3-c]pyridin-3-yl)piperidin-4-yl)(methyl)amino)methyl)-1-oxoisoindolin-2-yl)dihydropyrimidine-2,4 (1H,3H)-dione] | – | – |
| – | CCN(c1cc(-c2ccc(N3CCN(CC4CCN(c5cccc6c5C(=O)N(N5CCC(=O)NC5=O)C6=O)CC4)CC3)cc2)cc(C(=O)NCc2c(C)cc(C)[nH]c2=O)c1C)C1CCOCC1 [GT-08521, N-((4,6-dimethyl-2-oxo-1,2-dihydropyridin-3-yl)methyl)-4′-(4-((1-(2-(2,4-dioxotetrahydropyrimidin-1(2H)-yl)-1,3-dioxoisoindolin-4-yl)piperidin-4-yl)methyl)piperazin-1-yl)-5-(ethyl(tetrahydro-2H-pyran-4-yl)amino)-4-methyl-[1,1′-biphenyl]-3-carboxamide] | 20 to 30 | 30 to 40 |
| A (0%≤substrate protein remaining %≤80%) | COc1cc(N2CCC(N3CCN(Cc4ccc5c(c4)CN(N4CCC(=O)NC4=O)C5=O)CC3)CC2)c(C)cc1Nc1ncc(Br)c(Nc2ccc3nccnc3c2P(C)(C)=O)n1 [GT-05996, 1-(5-((4-(1-(4-((5-bromo-4-((5-(dimethylphosphoryl)quinoxalin-6-yl)amino)pyrimidin-2-yl)amino)-5-methoxy-2-methylphenyl)piperidin-4-yl)piperazin-1-yl)methyl)-1-oxoisoindolin-2-yl)dihydropyrimidine-2,4 (1H,3H)-dione] | – | – |
| – | CCN(c1cc(-c2ccc(CN3CCN(CC4CCN(c5cccc6c5C(=O)N(N5CCC(=O)NC5=O)C6=O)CC4)CC3)cc2)cc(C(=O)NCc2c(C)cc(C)[nH]c2=O)c1C)C1CCOCC1 [GT-08519, N-((4,6-dimethyl-2-oxo-1,2-dihydropyridin-3-yl)methyl)-4′-((4-((1-(2-(2,4-dioxotetrahydropyrimidin-1(2H)-yl)-1,3-dioxoisoindolin-4-yl)piperidin-4-yl)methyl)piperazin-1-yl)methyl)-5-(ethyl(tetrahydro-2H-pyran-4-yl)amino)-4-methyl-[1,1′-biphenyl]-3-carboxamide] | 10 to 15 | 20 to 30 |
| – | CCN(c1cc(-c2ccc(N3CCC(N(C)Cc4ccc5c(c4)CN(N4CCC(=O)NC4=O)C5=O)CC3)cc2)cc(C(=O)NCc2c(C)cc(C)[nH]c2=O)c1C)C1CCOCC1 [GT-08512, N-((4,6-dimethyl-2-oxo-1,2-dihydropyridin-3-yl)methyl)-4′-(4-(((2-(2,4-dioxotetrahydropyrimidin-1(2H)-yl)-1-oxoisoindolin-5-yl)methyl)(methyl)amino)piperidin-1-yl)-5-(ethyl(tetrahydro-2H-pyran-4-yl)amino)-4-methyl-[1,1′-biphenyl]-3-carboxamide] | 10 to 15 | 20 to 30 |
